Laboratory results as given in ChEMBL document CHEMBL4304804, “Synthesis and biological evaluation of calycanthaceous alkaloid analogs” (Bioorg Med Chem, 2019).
≈ marks a conversion by molar mass, not a printed value. Calls of active or inactive are those of the source. The rule behind the calls is not given here.

Key:
[1] = test system: Cytospora; assay: Antifungal activity against Cytospora juglandis assessed as reduction in fungal cell growth incubated for 48 hrs by serial dilution method; assay type: functional
[2] = test system: Colletotrichum orbiculare; assay: Antifungal activity against Colletotrichum orbiculare assessed as reduction in fungal cell growth incubated for 48 hrs by serial dilution method; assay type: functional
[3] = test system: Fusarium oxysporum f. sp. vasinfectum; assay: Antifungal activity against Fusarium oxysporum sp. vasinfectum assessed as reduction in fungal cell growth incubated for 48 hrs by serial dilution method; assay type: functional
[4] = test system: Ralstonia solanacearum; assay: Antibacterial activity against Ralstonia solanacearum assessed as reduction in bacterial cell growth incubated for 24 hrs by filter paper assay; assay type: functional
[5] = test system: Escherichia coli; assay: Antibacterial activity against Escherichia coli assessed as reduction in bacterial cell growth incubated for 24 hrs by filter paper assay; assay type: functional
[6] = test system: Staphylococcus aureus; assay: Antibacterial activity against Staphylococcus aureus assessed as reduction in bacterial cell growth incubated for 24 hrs by filter paper assay; assay type: functional
[7] = test system: Verticillium dahliae; assay: Antifungal activity against Verticillium dahliae assessed as reduction in fungal cell growth incubated for 48 hrs by serial dilution method; assay type: functional
[8] = test system: Cryptococcus neoformans; assay: Antifungal activity against Cryptococcus neoformans assessed as reduction in fungal cell growth incubated for 48 hrs by serial dilution method; assay type: functional
[9] = test system: Aspergillus flavus; assay: Antifungal activity against Aspergillus flavus assessed as reduction in fungal cell growth incubated for 48 hrs by serial dilution method; assay type: functional
[10] = test system: Candida tropicalis; assay: Antifungal activity against Candida tropicalis assessed as reduction in fungal cell growth incubated for 48 hrs by serial dilution method; assay type: functional
[11] = test system: Fusarium oxysporum; assay: Antifungal activity against Fusarium oxysporum assessed as reduction in fungal cell growth incubated for 48 hrs by serial dilution method; assay type: functional
[12] = test system: Curvularia lunata; assay: Antifungal activity against Curvularia lunata assessed as reduction in fungal cell growth incubated for 48 hrs by serial dilution method; assay type: functional
[13] = test system: Bacillus cereus; assay: Antibacterial activity against Bacillus cereus assessed as reduction in bacterial cell growth incubated for 24 hrs by filter paper assay; assay type: functional
[14] = test system: Pseudomonas aeruginosa; assay: Antibacterial activity against Pseudomonas aeruginosa assessed as reduction in bacterial cell growth incubated for 24 hrs by filter paper assay; assay type: functional
[15] = biological target: Acetylcholinesterase (Electrophorus electricus, UniProt O42275); assay: Inhibition of electric eel AChE by Ellman's colorimetry
Sequence of Acetylcholinesterase (O42275 whole entry): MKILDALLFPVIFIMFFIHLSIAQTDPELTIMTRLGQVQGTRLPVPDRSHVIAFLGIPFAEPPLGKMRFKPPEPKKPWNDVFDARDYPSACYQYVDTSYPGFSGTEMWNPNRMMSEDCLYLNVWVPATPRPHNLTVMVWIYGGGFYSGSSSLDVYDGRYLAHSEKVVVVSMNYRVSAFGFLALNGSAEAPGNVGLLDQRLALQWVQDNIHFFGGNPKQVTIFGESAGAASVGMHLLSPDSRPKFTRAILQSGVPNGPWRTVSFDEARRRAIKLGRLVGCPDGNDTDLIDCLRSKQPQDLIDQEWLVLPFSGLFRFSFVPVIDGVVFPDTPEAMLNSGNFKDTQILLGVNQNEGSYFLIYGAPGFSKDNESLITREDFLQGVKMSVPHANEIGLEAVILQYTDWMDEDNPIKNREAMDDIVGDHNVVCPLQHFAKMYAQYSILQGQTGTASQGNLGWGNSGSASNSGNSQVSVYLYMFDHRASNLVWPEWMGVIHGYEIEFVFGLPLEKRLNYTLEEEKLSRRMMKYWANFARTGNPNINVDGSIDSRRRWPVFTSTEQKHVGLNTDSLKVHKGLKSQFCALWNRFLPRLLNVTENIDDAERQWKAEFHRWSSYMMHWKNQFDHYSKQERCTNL

[16] = test system: Penicillium citrinum; assay: Antifungal activity against Penicillium citrinum assessed as reduction in fungal cell growth incubated for 48 hrs by serial dilution method; assay type: functional
[17] = test system: Candida; assay: Antifungal activity against […] assessed as reduction in fungal cell growth incubated for 48 hrs by serial dilution method; assay type: functional
[18] = test system: Aspergillus niger; assay: Antifungal activity against Aspergillus niger assessed as reduction in fungal cell growth incubated for 48 hrs by serial dilution method; assay type: functional

Compound	MIC [1]	MIC [2]	MIC [3]	MIC [4]	MIC [5]	MIC [6]	MIC [7]	MIC [8]	MIC [9]	MIC [10]	MIC [11]	MIC [12]	MIC [13]	MIC [14]	IC50 [15] [µM]	MIC [16]	MIC [17]	MIC [18]
COc1ccc(C(=O)N2CCC3(Cc4cccc(C)c4)c4ccccc4N(Cc4cccc(C)c4)C23)cc1 (stereo unspecified)	250 µg/mL (≈ 497 µM)	inactive	inactive	inactive	inactive	inactive	125 µg/mL (≈ 249 µM)	inactive	250 µg/mL (≈ 497 µM)	inactive	250 µg/mL (≈ 497 µM)	inactive	inactive	inactive	2.81	250 µg/mL (≈ 497 µM)	inactive	250 µg/mL (≈ 497 µM)
CN1c2ccccc2C2(O)CCCN(C(=O)c3cccc(F)c3)C12 (stereo unspecified)	inactive	inactive	inactive	250 µg/mL (≈ 766 µM)	250 µg/mL (≈ 766 µM)	inactive	250 µg/mL (≈ 766 µM)	inactive	inactive	inactive	inactive	inactive	inactive	250 µg/mL (≈ 766 µM)	0.337	inactive	inactive	inactive
Cc1cccc(CN2c3ccccc3C3(Cc4cccc(C)c4)CCN(C(=O)C(F)(F)F)C23)c1 (stereo unspecified)	250 µg/mL (≈ 538 µM)	inactive	inactive	inactive	inactive	inactive	inactive	inactive	250 µg/mL (≈ 538 µM)	inactive	250 µg/mL (≈ 538 µM)	inactive	inactive	inactive	3.38	inactive	inactive	inactive
Cc1cccc(CN2c3ccccc3C3(Cc4cccc(C)c4)CCN(C(=O)c4ccccc4)C23)c1 (stereo unspecified)	62.5 µg/mL (≈ 132 µM)	250 µg/mL (≈ 529 µM)	62.5 µg/mL (≈ 132 µM)	inactive	inactive	inactive	31.2 µg/mL (≈ 66.1 µM)	inactive	250 µg/mL (≈ 529 µM)	inactive	250 µg/mL (≈ 529 µM)	inactive	inactive	inactive	45.1	250 µg/mL (≈ 529 µM)	inactive	250 µg/mL (≈ 529 µM)
CCCCC(=O)N1CCCC2(O)c3ccccc3N(C)C12 (stereo unspecified)	inactive	inactive	inactive	62.5 µg/mL (≈ 217 µM)	250 µg/mL (≈ 867 µM)	125 µg/mL (≈ 433 µM)	250 µg/mL (≈ 867 µM)	inactive	inactive	inactive	inactive	inactive	inactive	250 µg/mL (≈ 867 µM)	27.4	inactive	inactive	inactive
CCC(=O)N1CCC2(Cc3cccc(C)c3)c3ccccc3N(Cc3cccc(C)c3)C12 (stereo unspecified)	62.5 µg/mL (≈ 147 µM)	250 µg/mL (≈ 589 µM)	inactive	inactive	250 µg/mL (≈ 589 µM)	62.5 µg/mL (≈ 147 µM)	250 µg/mL (≈ 589 µM)	inactive	250 µg/mL (≈ 589 µM)	250 µg/mL (≈ 589 µM)	125 µg/mL (≈ 294 µM)	250 µg/mL (≈ 589 µM)	31.2 µg/mL (≈ 73.6 µM)	inactive	0.919	inactive	250 µg/mL (≈ 589 µM)	125 µg/mL (≈ 294 µM)
Cc1cccc(CN2c3ccccc3C3(Cc4cccc(C)c4)CCN(C(=O)Cc4ccccc4)C23)c1 (stereo unspecified)	250 µg/mL (≈ 514 µM)	inactive	125 µg/mL (≈ 257 µM)	inactive	inactive	inactive	250 µg/mL (≈ 514 µM)	inactive	250 µg/mL (≈ 514 µM)	inactive	250 µg/mL (≈ 514 µM)	inactive	inactive	inactive	453	250 µg/mL (≈ 514 µM)	inactive	250 µg/mL (≈ 514 µM)
CCCCCC(=O)N1CCC2(Cc3cccc(C)c3)c3ccccc3N(Cc3cccc(C)c3)C12 (stereo unspecified)	125 µg/mL (≈ 268 µM)	250 µg/mL (≈ 536 µM)	inactive	250 µg/mL (≈ 536 µM)	inactive	inactive	15.6 µg/mL (≈ 33.5 µM)	inactive	250 µg/mL (≈ 536 µM)	250 µg/mL (≈ 536 µM)	125 µg/mL (≈ 268 µM)	inactive	250 µg/mL (≈ 536 µM)	125 µg/mL (≈ 268 µM)	142	250 µg/mL (≈ 536 µM)	250 µg/mL (≈ 536 µM)	250 µg/mL (≈ 536 µM)
Cc1ccccc1CN1c2ccccc2C2(Cc3ccccc3C)CCN(C(=O)c3ccccc3C)C12 (stereo unspecified)	250 µg/mL (≈ 514 µM)	inactive	250 µg/mL (≈ 514 µM)	125 µg/mL (≈ 257 µM)	inactive	250 µg/mL (≈ 514 µM)	250 µg/mL (≈ 514 µM)	inactive	250 µg/mL (≈ 514 µM)	250 µg/mL (≈ 514 µM)	250 µg/mL (≈ 514 µM)	62.5 µg/mL (≈ 128 µM)	250 µg/mL (≈ 514 µM)	inactive	229	250 µg/mL (≈ 514 µM)	250 µg/mL (≈ 514 µM)	125 µg/mL (≈ 257 µM)
C[C@@H]1[C@H](O)[C@@H](C)/C=C/C=C/C=C/C=C/C=C/C=C/C=C/[C@H](O[C@@H]2O[C@H](C)[C@@H](O)[C@H](N)[C@@H]2O)C[C@@H]2O[C@](O)(C[C@@H](O)C[C@@H](O)[C@H](O)CC[C@@H](O)C[C@@H](O)CC(=O)O[C@H]1C)C[C@H](O)[C@H]2C(=O)O [AMPHOTERICIN B]	–	–	–	–	–	–	–	1.96 µg/mL (≈ 2.12 µM)	–	–	–	–	–	–	–	–	250 µg/mL (≈ 271 µM)	–
N#Cc1c(Cl)c(Cl)c(Cl)c(C#N)c1Cl [CHLOROTHALONIL]	62.5 µg/mL (≈ 235 µM)	250 µg/mL (≈ 940 µM)	250 µg/mL (≈ 940 µM)	–	–	–	31.2 µg/mL (≈ 118 µM)	–	7.81 µg/mL (≈ 29.4 µM)	–	62.5 µg/mL (≈ 235 µM)	125 µg/mL (≈ 470 µM)	–	–	–	15.6 µg/mL (≈ 58.8 µM)	–	15.6 µg/mL (≈ 58.8 µM)
Cc1ccccc1CN1c2ccccc2C2(Cc3ccccc3C)CCN(C(=O)C(F)(F)F)C12 (stereo unspecified)	250 µg/mL (≈ 538 µM)	250 µg/mL (≈ 538 µM)	inactive	inactive	inactive	inactive	125 µg/mL (≈ 269 µM)	inactive	250 µg/mL (≈ 538 µM)	125 µg/mL (≈ 269 µM)	250 µg/mL (≈ 538 µM)	250 µg/mL (≈ 538 µM)	inactive	inactive	7.08	inactive	250 µg/mL (≈ 538 µM)	250 µg/mL (≈ 538 µM)
CCCCCCC(=O)N1CCC2(Cc3ccccc3C)c3ccccc3N(Cc3ccccc3C)C12 (stereo unspecified)	62.5 µg/mL (≈ 130 µM)	250 µg/mL (≈ 520 µM)	250 µg/mL (≈ 520 µM)	125 µg/mL (≈ 260 µM)	250 µg/mL (≈ 520 µM)	inactive	62.5 µg/mL (≈ 130 µM)	inactive	250 µg/mL (≈ 520 µM)	250 µg/mL (≈ 520 µM)	125 µg/mL (≈ 260 µM)	125 µg/mL (≈ 260 µM)	inactive	250 µg/mL (≈ 520 µM)	90.8	125 µg/mL (≈ 260 µM)	250 µg/mL (≈ 520 µM)	250 µg/mL (≈ 520 µM)
CN[C@@H]1[C@H](O[C@H]2[C@H](O[C@H]3[C@H](O)[C@@H](O)[C@H](N=C(N)N)[C@@H](O)[C@@H]3N=C(N)N)O[C@@H](C)[C@]2(O)C=O)O[C@@H](CO)[C@H](O)[C@H]1O [STREPTOMYCIN]	–	–	–	250 µg/mL (≈ 430 µM)	31.2 µg/mL (≈ 53.7 µM)	–	–	–	–	–	–	–	–	inactive	–	–	–	–
COc1ccc(C(=O)N2CCC3(Cc4ccccc4C)c4ccccc4N(Cc4ccccc4C)C23)cc1 (stereo unspecified)	250 µg/mL (≈ 497 µM)	inactive	inactive	inactive	inactive	inactive	250 µg/mL (≈ 497 µM)	inactive	250 µg/mL (≈ 497 µM)	inactive	250 µg/mL (≈ 497 µM)	inactive	inactive	inactive	126	inactive	inactive	250 µg/mL (≈ 497 µM)
OC(Cn1cncn1)(Cn1cncn1)c1ccc(F)cc1F [FLUCONAZOLE]	–	–	–	–	–	–	–	–	–	250 µg/mL (≈ 816 µM)	–	–	–	–	–	–	62.5 µg/mL (≈ 204 µM)	–
GENTAMICIN	–	–	–	62.5 µg/mL	1.96 µg/mL	–	–	–	–	–	–	–	–	1.96 µg/mL	–	–	–	–
CC1(C)S[C@@H]2[C@H](NC(=O)Cc3ccccc3)C(=O)N2[C@H]1C(=O)O [PENICILLIN G]	–	–	–	–	–	15.6 µg/mL (≈ 46.7 µM)	–	–	–	–	–	–	7.81 µg/mL (≈ 23.4 µM)	–	–	–	–	–
COC(=O)Nc1nc2ccccc2[nH]1 [CARBENDAZIM]	31.2 µg/mL (≈ 163 µM)	125 µg/mL (≈ 654 µM)	62.5 µg/mL (≈ 327 µM)	–	–	–	7.81 µg/mL (≈ 40.8 µM)	–	7.81 µg/mL (≈ 40.8 µM)	–	125 µg/mL (≈ 654 µM)	250 µg/mL (≈ 1310 µM)	–	–	–	1.96 µg/mL (≈ 10.3 µM)	–	inactive
